Here are results for eight compounds from patent publication US10004762B2, “Dialysis formulation” (Gambro Lundia AB, priority 2013, dated 2018).

Read-outs that look alike come from different tables or passages of the source.

Data set [1] is described as follows: Trace element concentrations in effluent of hemodialysis patients (ICP-MS). To be noted: effluent from HD patients at the end of dialysis session.
Description: (§1) Trace element concentrations have been analyzed in effluent obtained from hemodialysis (HD) patients at the end of their dialysis session.
(§2) In the study participated 47 hemodialysis patients. […] All patients received dialysis 3-5 h, 3-4 times per week. Whole blood and plasma samples for trace element analysis were obtained pre- and post-midweek dialysis treatment in 6 ml trace element-free EDTA tubes (BD Vaccutainer®, Stockholm, Sweden). In addition effluent samples were taken post-treatment in 50 ml trace element-free tubes.
(§3) Analysis of all trace elements was performed by inductively coupled plasma-mass spectrometry (ICP-MS; Thermo X7, Thermo Elemental, Winsford, UK). For plasma and blood a sample volume of 250 μL was diluted 10 times with an alkaline solution according to Bárány et al. The effluent was analysed in acidic condition, i.e. concentrated nitric acid (HNO3) was added to the samples to a final concentration of 2%. Using the dilute solution or 2% HNO3 as a carrier/rinsing fluid, the samples were introduced in a segment-flow mode.
Data set [2] in a line: Loss of trace elements during 24 h CRRT treatment (FIG. 5A-5B). Particulars: patients with CRRT (acute dialysis treatment).
Data set [3] can be described thus: Trace element analysis in plasma and whole blood of HD patients and healthy controls (ICP-MS). To be noted: for P2 plasma sample post-dialysis ± SEM / P1 plasma sample pre-dialysis ± SEM / B2 whole blood sample post-dialysis ± SEM / B1 whole blood sample pre-dialysis ± SEM: all HD patients; for P control ± SEM / B control ± SEM: healthy controls; for B2 whole blood sample post-dialysis ± SEM / B1 whole blood sample pre-dialysis ± SEM / B control ± SEM: whole blood; for increase of concentration during dialysis: plasma and whole blood, HD patients (FIG. 2).
Description: (§4) In the study participated 47 hemodialysis patients. These 47 hemodialysis patients (34 female and 13 male), were divided into 30 non-diabetic and 17 with diabetes mellitus, with an average age of 67 (Table 1). All patients received dialysis 3-5 h, 3-4 times per week. Whole blood and plasma samples for trace element analysis were obtained pre- and post-midweek dialysis treatment in 6 ml trace element-free EDTA tubes (BD Vaccutainer®, Stockholm, Sweden). […] In addition, the same samples were taken at one occasion from a healthy control group. The control group included 51 persons (20 female and 31 male), with an average age of 22.
as §3

The conditions of data set [4]: human, in vivo.
Description: as §1, §2, §3
The conditions of data set [5]: in vivo.
The conditions of data set [6]: in vivo. The source holds these as a separate data set.
For data set [7] the following is noted: human, in vivo. This is another data set of the same source.
Description: as §4, §3
Data set [8] is described as follows: Loss of trace elements during hemodialysis (HD) treatment (FIG. 5C-5E). Particulars: HD patients (chronic dialysis treatment), 4 hours of HD.

In the case of `[Cr]` [Chromium], the “Effluent concentration ± SD” value in data set [1] worked out at 0.0043 ± 0.008 µM. Besides, the “actual loss during 24 hours of CRRT” value in data set [2] is given as “significant loss”. In data set [3] (plasma), the “P2 plasma sample post-dialysis ± SEM” value is 5.2 ± 0.6 µg/L, the “P1 plasma sample pre-dialysis ± SEM” value is 3.3 ± 0.3 µg/L and the “P control ± SEM” value is 0.3 ± 0.02 µg/L. In data set [3] (plasma, listed as Cr), the “P1 plasma sample pre-dialysis ± SEM” value turned out to be 3.3 ± 0.3 µg/L and the “P control ± SEM” value was found to be 0.3 ± 0.02 µg/L. Also, in data set [3], the “B2 whole blood sample post-dialysis ± SEM” value worked out at 3.4 ± 0.4 µg/L, the “B1 whole blood sample pre-dialysis ± SEM” value worked out at 2.1 ± 0.2 µg/L, the “B control ± SEM” value was 0.3 ± 0.02 µg/L and the “increase of concentration during dialysis” value is on record as “up to 60%”. In addition, the plasma concentration post-dialysis in data set [3] (diabetic HD patients) is 2.5 ± 0.4 ng/mL. This compound came in with a plasma concentration post-dialysis in data set [3] (non-diabetic HD patients) of 3.8 ± 0.4 ng/mL.

Consider `[Cu]` [Copper], for which the “Effluent concentration ± SD” value in data set [4] came out at 0.026 ± 0.015 µM. The “actual loss during 24 hours of CRRT” value in data set [5] was “significant loss”. Also, the “actual loss / removal during HD treatment” value in data set [6] is “removal of those trace elements in a majority of the patients”. In addition, in data set [7], the “B1 whole blood sample pre-dialysis ± SEM” value amounted to 855 ± 18 µg/L, the “B2 whole blood sample post-dialysis ± SEM” value was found to be 882 ± 17 µg/L, the “B control ± SEM” value turned out to be 861 ± 27 µg/L and the “P1 plasma sample pre-dialysis ± SEM” value turned out to be 1113 ± 33 µg/L. Besides, in data set [7], the “P2 plasma sample post-dialysis ± SEM” value is 1178 ± 29 µg/L, the “increase of concentration during dialysis” value is around 4% and the plasma concentration was 1173 ± 56 ng/mL.

`[Mn+2]` [Manganese]: the “Effluent concentration ± SD” value in data set [1] was 0.005 ± 0.005 µM. For the same compound, the “actual loss during 24 hours of CRRT” value in data set [2] was “significant loss”. Further, in data set [8], the “actual loss / removal during HD treatment” value is listed as “no manganese removal at all but rather an uptake”. In addition, in data set [3] (plasma), the “P2 plasma sample post-dialysis ± SEM” value turned out to be 3.4 ± 0.9 µg/L, the “P1 plasma sample pre-dialysis ± SEM” value came out at 0.8 ± 0.03 µg/L and the “P control ± SEM” value turned out to be 0.7 ± 0.02 µg/L. Also, in data set [3], the “B2 whole blood sample post-dialysis ± SEM” value stood at 19.3 ± 1.4 µg/L, the “B1 whole blood sample pre-dialysis ± SEM” value is 17 ± 1.3 µg/L and the “B control ± SEM” value stood at 9.2 ± 0.4 µg/L. In data set [3] (listed as Mn), the “B1 whole blood sample pre-dialysis ± SEM” value is 17.0 ± 1.1 µg/L and the “B control ± SEM” value was 9.2 ± 0.4 µg/L. Moreover, in data set [3] (diabetic HD patients), the blood concentration post-dialysis stood at 20 ± 2.7 ng/mL and the blood concentration pre-dialysis turned out to be 17 ± 2.1 ng/mL. In data set [3] (non-diabetic HD patients), this compound gave a blood concentration post-dialysis of 19 ± 1.4 ng/mL and a blood concentration pre-dialysis of 17 ± 1.3 ng/mL.

Consider `[Mo]` [Molybdenum], for which the “Effluent concentration ± SD” value in data set [4] stood at 0.003 ± 0.002 µM. Also, in data set [5], the “actual loss during 24 hours of CRRT” value is recorded as “significant loss”. In data set [7], the “B1 whole blood sample pre-dialysis ± SEM” value stood at 2.0 ± 0.2 µg/L, the “B2 whole blood sample post-dialysis ± SEM” value came to 1.0 ± 0.1 µg/L, the “B control ± SEM” value was 0.6 ± 0.1 µg/L and the “P1 plasma sample pre-dialysis ± SEM” value came out at 2.6 ± 0.2 µg/L. In addition, in data set [7], the “P2 plasma sample post-dialysis ± SEM” value amounted to 1.3 ± 0.1 µg/L, the “P control ± SEM” value came to 0.8 ± 0.1 µg/L, the “decrease of concentration during dialysis” value is given as around 50% and the plasma concentration post-dialysis was determined as 1.2 ± 0.2 ng/mL. In addition, in data set [7], the plasma concentration pre-dialysis stood at 3.1 ± 0.4 ng/mL and the “reduction of plasma concentration during dialysis” value is 50%.

For the compound `[Rb]` [Rubidium], the “Effluent concentration ± SD” value in data set [4] came out at 0.31 ± 0.17 µM. Further, in data set [5], the “actual loss during 24 hours of CRRT” value is reported as “large loss”. Also, the “actual loss / removal during HD treatment” value in data set [6] is on record as “significant removal of rubidium in a majority of the patients”. In addition, in data set [7], the “B1 whole blood sample pre-dialysis ± SEM” value was found to be 972 ± 30 µg/L, the “B2 whole blood sample post-dialysis ± SEM” value stood at 974 ± 30 µg/L, the “B control ± SEM” value was determined as 1966 ± 51 µg/L and the “P1 plasma sample pre-dialysis ± SEM” value worked out at 187 ± 5 µg/L. Besides, in data set [7], the “P2 plasma sample post-dialysis ± SEM” value is 150 ± 4 µg/L, the “P control ± SEM” value came to 271 ± 5 µg/L and the “decrease of plasma concentration during dialysis” value was around 20%.

For the compound `[Se]` [Selenium], the “Effluent concentration ± SD” value in data set [4] (both) was found to be 0.01 ± 0.005 µM. For the same compound, the “actual loss during 24 hours of CRRT” value in data set [5] is given as “significant loss”. In addition, the “actual loss / removal during HD treatment” value in data set [6] is recorded as “significant removal of selenium in most patients”. Moreover, in data set [7] (both), the “B1 whole blood sample pre-dialysis ± SEM” value turned out to be 66 ± 2 µg/L, the “B2 whole blood sample post-dialysis ± SEM” value was 68 ± 2 µg/L, the “B control ± SEM” value was found to be 102 ± 3 µg/L and the “P1 plasma sample pre-dialysis ± SEM” value came to 53 ± 2 µg/L. In data set [7] (both), the “P2 plasma sample post-dialysis ± SEM” value is 55 ± 2 µg/L and the “P control ± SEM” value was determined as 81 ± 1.9 µg/L.

As to Cobalt, the “Effluent concentration ± SD” value in data set [1] was determined as 0.0015 ± 0.002 µM. Further, the “actual loss during 24 hours of CRRT” value in data set [2] is “significant loss”. In data set [3] (plasma), the “P2 plasma sample post-dialysis ± SEM” value was 0.6 ± 0.1 µg/L, the “P1 plasma sample pre-dialysis ± SEM” value was 0.6 ± 0.03 µg/L and the “P control ± SEM” value was determined as 0.4 ± 0.02 µg/L. In addition, in data set [3] (plasma, listed as Co), the “P1 plasma sample pre-dialysis ± SEM” value was determined as 0.6 ± 0.03 µg/L and the “P control ± SEM” value was 0.4 ± 0.02 µg/L. Besides, in data set [3], the “B2 whole blood sample post-dialysis ± SEM” value was 0.5 ± 0.03 µg/L, the “B1 whole blood sample pre-dialysis ± SEM” value was 0.5 ± 0.02 µg/L and the “B control ± SEM” value came to 0.3 ± 0.01 µg/L. Further, the “increase in plasma concentration during dialysis” value in data set [3] (plasma, diabetic and non-diabetic HD patients) was around 15%.

As to Zinc, the “Effluent concentration ± SD” value in data set [1] worked out at 0.017 ± 0.01 µM. In addition, the “actual loss during 24 hours of CRRT” value in data set [2] is “some subjects show a uptake of zinc (negative loss) while others show loss of zinc”. For the same compound, the “actual loss / removal during HD treatment” value in data set [8] is “removal of those trace elements in a majority of the patients”. In data set [3] (plasma), the “P2 plasma sample post-dialysis ± SEM” value stood at 685 ± 17 µg/L, the “P1 plasma sample pre-dialysis ± SEM” value came to 644 ± 13 µg/L and the “P control ± SEM” value was found to be 719 ± 17 µg/L. Also, in data set [3], the “B2 whole blood sample post-dialysis ± SEM” value worked out at 5842 ± 131 µg/L, the “B1 whole blood sample pre-dialysis ± SEM” value was determined as 5610 ± 138 µg/L, the “B control ± SEM” value was found to be 5189 ± 124 µg/L and the “increase of concentration during dialysis” value was around 5%. Also, in data set [3] (listed as Zn), the “B1 whole blood sample pre-dialysis ± SEM” value was found to be 5610 ± 138 µg/L and the “B control ± SEM” value was determined as 5189 ± 124 µg/L.
